Measurements from US20120101083A1, “S1P1 AGONISTS COMPRISING A BICYCLIC N-CONTAINING RING” (GLAXO GROUP LIMITED, priority 2009, published 2012).
Structures can show the parent of a compound that is named as a salt.

Experiments:
[1] = target: T1, S1P1 receptor (S1P1 expressing RH7777 membranes) (Homo sapiens, UniProt P21453); assay: S1P1 GTPγS assay; format: biochemical; conditions: tested in one of the above S1P1 assays (two GTPγS formats)
T1 construct: expressed in transfected cells; host or cells: RH7777 cells (membranes)
Method in brief: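 Membranes from RH7777 cells expressing human S1P1 (1.5 μg/well) precoupled 30 min on ice to WGA SPA beads in 20 mM HEPES pH 7.4, 10 mM MgCl2, 100 mM NaCl, with 10 μM GDP and 90 μg/ml saponin. [35S]-GTPγS 0.5 nM final added with compound; SPA signal read immediately.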

[2] = target: T2, S1P1 (PathHunter CHO-K1 EDG1 β-Arrestin cell line) (Homo sapiens, UniProt P21453); assay: S1P-1 β-Arrestin recruitment assay; format: cell-based; conditions: CHO-K1 EDG1 β-Arrestin cells, chemi-luminescence
T2 construct: host or cells: PathHunter CHO-K1 EDG1 β-Arrestin cell line
Method in brief: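 CHO-K1 cells expressing S1P1 and β-arrestin 2 fused to complementing β-galactosidase fragments, at 1×10^4 cells/well in pH 7.4 buffer with 0.1% BSA. Compound exposure 90 min at 37 °C then 15 min room temperature; chemiluminescent substrate added for 60 min before luminescence read.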

T1 sequence (P21453 whole entry): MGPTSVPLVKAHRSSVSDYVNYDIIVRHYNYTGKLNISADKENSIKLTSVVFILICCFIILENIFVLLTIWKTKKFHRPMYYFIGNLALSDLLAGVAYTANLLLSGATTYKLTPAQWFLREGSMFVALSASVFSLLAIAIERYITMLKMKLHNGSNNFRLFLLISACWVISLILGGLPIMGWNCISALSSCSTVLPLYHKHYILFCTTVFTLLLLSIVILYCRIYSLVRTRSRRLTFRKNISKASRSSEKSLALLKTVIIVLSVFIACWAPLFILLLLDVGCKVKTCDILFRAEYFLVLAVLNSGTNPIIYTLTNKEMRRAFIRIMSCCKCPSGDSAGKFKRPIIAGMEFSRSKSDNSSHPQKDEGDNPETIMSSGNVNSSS
T2 sequence (P21453 whole entry): as above
T2 sequence (P32121 whole entry partner): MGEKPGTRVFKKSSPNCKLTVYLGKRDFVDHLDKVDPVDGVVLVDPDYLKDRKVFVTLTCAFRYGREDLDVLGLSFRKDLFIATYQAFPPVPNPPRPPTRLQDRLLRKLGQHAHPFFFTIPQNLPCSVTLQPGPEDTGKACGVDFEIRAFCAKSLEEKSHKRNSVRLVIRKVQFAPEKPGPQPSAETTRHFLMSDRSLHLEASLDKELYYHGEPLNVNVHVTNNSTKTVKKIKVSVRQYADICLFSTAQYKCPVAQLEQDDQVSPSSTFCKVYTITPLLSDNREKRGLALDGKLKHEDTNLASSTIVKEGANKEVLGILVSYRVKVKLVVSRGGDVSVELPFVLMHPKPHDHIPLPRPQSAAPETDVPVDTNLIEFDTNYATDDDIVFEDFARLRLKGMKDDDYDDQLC

Structure (SMILES)	EC50 [1] [nM]	EC50 [2] [nM]
Cc1c(-c2noc(-c3ccc(OC(C)C)c(C#N)c3)n2)ccc2c1CCN(CC(=O)N1CC(O)C1)C2 [Example 123, 5-(3-{2-[2-(3-hydroxy-1-azetidinyl)-2-oxoethyl]-5-methyl-1,2,3,4-tetrahydro-6-isoquinolinyl}-1,2,4-oxadiazol-5-yl)-2-[(1-methylethyl)oxy]benzonitrile hydrochloride]	≤ 100	≤ 10
CC(C)Oc1ccc(-c2nc(-c3ccc4c(c3)CCN(CCCC(N)=O)CC4)no2)cc1C#N [Example 25, 4-[7-(5-{3-Cyano-4-[(1-methylethyl)oxy]phenyl}-1,2,4-oxadiazol-3-yl)-1,2,4,5-tetrahydro-3H-3-benzazepin-3-yl]butanamide]	≤ 100	≤ 10
Cc1c(-c2noc(-c3ccc(OC(C)C)c(C#N)c3)n2)ccc2c1CCN(C(=O)CNCCO)CC2 [Example 155, 5-(3-{3-[N-(2-hydroxyethyl)glycyl]-6-methyl-2,3,4,5-tetrahydro-1H-3-benzazepin-7-yl}-1,2,4-oxadiazol-5-yl)-2-[(1-methylethyl)oxy]benzonitrile]	1	≤ 10
CNCCC(=O)N1CCc2c(ccc(-c3noc(-c4ccc(OC(C)C)c(C#N)c4)n3)c2C)C1 [Example 40, 2-[(1-methylethyl)oxy]-5-{3-[5-methyl-2-(N-methyl-b-alanyl)-1,2,3,4-tetrahydro-6-isoquinolinyl]-1,2,4-oxadiazol-5-yl}benzonitrile hydrochloride]	≤ 100	≤ 10
Cc1c(-c2noc(-c3cnc(OC(C)C)c(C#N)c3)n2)ccc2c1CCN(C[C@@H](O)CO)C2 [Example 133]	≤ 100	≤ 100
CC(C)Oc1ccc(-c2nc(-c3ccc4c(c3)CCN(CC(=O)NC[C@H](C)O)CC4)no2)cc1C#N [Example 75, 2-[7-(5-{3-cyano-4-[(1-methylethyl)oxy]phenyl}-1,2,4-oxadiazol-3-yl)-1,2,4,5-tetrahydro-3H-3-benzazepin-3-yl]-N-[(2S)-2-hydroxypropyl]acetamide hydrochloride]	≤ 100	≤ 10
Cc1c(-c2noc(-c3ccc(OC(C)C)c(C#N)c3)n2)ccc2c1CCN(CCO)C2 [Example 7, 5-{3-[2-(2-Hydroxyethyl)-5-methyl-1,2,3,4-tetrahydro-6-isoquinolinyl]-1,2,4-oxadiazol-5-yl}-2-[(1-methylethyl)oxy]benzonitrile]	≤ 100	≤ 10
CC(C)Oc1ccc(-c2nc(-c3cccc4c3CCN(C(=O)[C@H](N)CO)C4)no2)cc1C#N [Example 90, 2-[(1-methylethyl)oxy]-5-[3-(2-D-seryl-1,2,3,4-tetrahydro-5-isoquinolinyl)-1,2,4-oxadiazol-5-yl]benzonitrile hydrochloride]	≤ 10	≤ 100
Cc1c(-c2noc(-c3ccc(OC(C)C)c(C#N)c3)n2)ccc2c1CCN(CCC(N)=O)C2 [Example 1, 3-[6-(5-{3-Cyano-4-[(1-methylethyl)oxy]phenyl}-1,2,4-oxadiazol-3-yl)-5-methyl-3,4-dihydro-2(1H)-isoquinolinyl]propanamide]	≤ 100	≤ 10
Cc1c(-c2noc(-c3ccc(OC(C)C)c(C#N)c3)n2)ccc2c1CCN(CC(=O)NC[C@H](C)O)CC2 [Example 148, 2-[7-(5-{3-cyano-4-[(1-methylethyl)oxy]phenyl}-1,2,4-oxadiazol-3-yl)-6-methyl-1,2,4,5-tetrahydro-3H-3-benzazepin-3-yl]-N-[(2S)-2-hydroxypropyl]acetamide]	≤ 100	≤ 10
Cc1c(-c2noc(-c3ccc(OC(C)C)c(C#N)c3)n2)ccc2c1CCN(C(=O)CNC(CO)CO)CC2 [Example 189, 5-[3-(3-{N-[2-hydroxy-1-(hydroxymethyl)ethyl]glycyl}-6-methyl-2,3,4,5-tetrahydro-1H-3-benzazepin-7-yl)-1,2,4-oxadiazol-5-yl]-2-[(1-methylethyl)oxy]benzonitrile]	≤ 100	≤ 10
CCOc1ccc(-c2nc(-c3ccc4c(c3)CCN(CC(O)CO)CC4)no2)cc1C#N (stereo not shown) [Example 70, 5-{3-[3-(2,3-dihydroxypropyl)-2,3,4,5-tetrahydro-1H-3-benzazepin-7-yl]-1,2,4-oxadiazol-5-yl}-2-(ethyloxy)benzonitrile]	≤ 100	≤ 100
CC(C)Oc1ccc(-c2nc(-c3ccc4c(c3)CCN(CC(=O)NC(CO)CO)CC4)no2)cc1C#N [Example 195, 2-[7-(5-{3-cyano-4-[(1-methylethyl)oxy]phenyl}-1,2,4-oxadiazol-3-yl)-1,2,4,5-tetrahydro-3H-3-benzazepin-3-yl]-N-[2-hydroxy-1-(hydroxymethyl)ethyl]acetamide hydrochloride]	≤ 100	≤ 10
CCNC(=O)CCCN1CCc2ccc(-c3noc(-c4ccc(OC(C)C)c(C#N)c4)n3)cc2CC1 [Example 44, 4-[7-(5-{3-cyano-4-[(1-methylethyl)oxy]phenyl}-1,2,4-oxadiazol-3-yl)-1,2,4,5-tetrahydro-3H-3-benzazepin-3-yl]-N-ethylbutanamide]	≤ 100	≤ 10
CCOc1ncc(-c2nc(-c3ccc4c(c3)CCN(C[C@H](O)CO)CC4)no2)cc1C#N [Example 116, 5-(3-{34[(2S)-2,3-dihydroxypropyl]-2,3,4,5-tetrahydro-1H-3-benzazepin-7-yl}-1,2,4-oxadiazol-5-yl)-2-(ethyloxy)-3-pyridinecarbonitrile]	≤ 1000	≤ 100
CC(C)Oc1ccc(-c2nc(-c3ccc4c(c3)CCN(C(=O)CNC[C@H](O)CO)CC4)no2)cc1C#N [Example 196, 5-[3-(3-{N-[(2S)-2,3-dihydroxypropyl]glycyl}-2,3,4,5-tetrahydro-1H-3-benzazepin-7-yl)-1,2,4-oxadiazol-5-yl]-2-[(1-methylethyl)oxy]benzonitrile hydrochloride]	≤ 1000	≤ 100
Cc1c(-c2noc(-c3ccc(OC(C)C)c(C#N)c3)n2)ccc2c1CCN(C[C@H](O)CO)CC2 [Example 153, 5-(3-{3-[(2S)-2,3-dihydroxypropyl]-6-methyl-2,3,4,5-tetrahydro-1H-3-benzazepin-7-yl}-1,2,4-oxadiazol-5-yl)-2-[(1-methylethyl)oxy]benzonitrile hydrochloride]	≤ 100	≤ 100
CC(C)Oc1ccc(-c2nc(-c3ccc4c(c3)CCN(C[C@H](O)CO)CC4)no2)cc1C#N [Example 72, 5-(3-{3-[(2S)-2,3-dihydroxypropyl]-2,3,4,5-tetrahydro-1H-3-benzazepin-7-yl}-1,2,4-oxadiazol-5-yl)-2-[(1-methylethyl)oxy]benzonitrile]	≤ 100	≤ 10
CC(C)Oc1ccc(-c2nc(-c3ccc4c(c3)CCN(CC(=O)N[C@H](C)CO)CC4)no2)cc1C#N [Example 78, 2-[7-(5-{3-cyano-4-[(1-methylethyl)oxy]phenyl}-1,2,4-oxadiazol-3-yl)-1,2,4,5-tetrahydro-3H-3-benzazepin-3-yl]-N-(1R)-2-hydroxy-1-methylethyl]acetamide hydrochloride]	≤ 1000	≤ 100
Cc1c(-c2noc(-c3ccc(OC(C)C)c(C#N)c3)n2)ccc2c1CCN(CC(=O)NCCO)CC2 [Example 146, 2-[7-(5-{3-cyano-4-[(1-methylethyl)oxy]phenyl}-1,2,4-oxadiazol-3-yl)-6-methyl-1,2,4,5-tetrahydro-3H-3-benzazepin-3-yl]-N-(2-hydroxyethyl)acetamide]	≤ 100	≤ 10
